The values below come from US7160545B2, “HLA-A24 binding peptides of enhancer of zeste homolog 2” (Green Peptide Co., Ltd., priority 2005, dated 2007).

Where two headings read alike, the source gives them in different places. No end group written: not given here.

For data set [1], the system named is IgG in the plasma of prostate cancer patients. Briefly: ELISA for peptide-specific IgG in plasma of prostate cancer patients. It is filed as binding, human. The settings on record: for Humoral response, Total (IgG-positive patients/patients tested): positive when OD more than 0.04; for IgG reactive to peptide, OD: 1:100-diluted plasma, cut-off OD 0.04, — = not positive. How it is done:
Peptide-specific IgG levels in the plasma were measured by ELISA using a previously reported method (20). In brief, peptide (20 μg/well)-immobilized plates were blocked with Block Ace (Yukijirushi, Tokyo, Japan) and washed with 0.05% Tween20-PBS, after which 100 μl/well of plasma sample diluted with 0.05% Tween20-Block Ace was added to the plates. After a 2-hr incubation at 37° C., the plates were washed and further incubated for 2 hr with a 1:1000-diluted rabbit anti-human IgG (γ-chain-specific) (DAKO, Glostrup, Denmark). The plates were washed, and then 100 μl of 1:100-diluted goat anti-rabbit IgG-conjugated horseradish peroxidase (EnVision; DAKO) was added to each well, and the plates were incubated at room temperature for 40 min. After the plates were washed once, 100 μl/well of tetramethyl benzidine substrate solution (KPL, Guildford, UK) was added, and the reaction was stopped by the addition of 1 M phosphoric acid. The values are shown as optical density (OD) units/ml. To confirm the specificity of IgG to the indicated EZH2 peptide, sample plasma was cultured with plates coated with either the corresponding EZH2 peptide or an irrelevant EZH2 peptide. Thereafter, the levels of EZH2 peptide-specific IgG in the resulting supernatant were determined by ELISA.
As shown above, we investigated whether IgG reactive to each of the 11 EZH2-derived peptides could be detected in the plasma of 10 prostate cancer patients. These patients were not limited to the HLA-A24^+ subjects, because peptide-specific IgG was not restricted to MHC class I molecules, as reported previously (22). The mean+2 SD value (OD: 0.04), which was determined as the level of IgG reactive to the HIV peptide in plasma from HIV-negative healthy donors, was used as a cut-off value at a 1:100 diluted plasma in the ELISA.

Data set [2] has as its system LNCaP-A24 cells. Briefly: 6-hr 51Cr-release cytotoxicity of EZH2 peptide-stimulated PBMCs. It is filed as cell-based, human. Conditions: LNCaP-A24 (HLA-A24^+) versus LNCaP (HLA-A24^−) and PHA-stimulated T cell blasts, PBMCs from 3 HLA-A24^+ patients. An excerpt:
To investigate HLA-A24-restricted cytotoxicity, the level of cytotoxicity against the LNCaP was compared with the level of cytotoxicity against its transfectant, LNCaP-A24, which is a subline that transfected with the HLA-A*2402 gene and express the gene stably (Yao A, Harada M, Matsueda S, Ishihara Y, Shomura H, Noguchi M, Matsuoka K, Hara I, Kamidono S, Itoh K, Identification of parathyroid hormone-related protein-derived peptides immunogenic in human histocompatibility leukocyte antigen-A24^+ prostate cancer patients, British Journal of Cancer, 91:287–296, 2004, this reference is incorporated herein by reference). All cell lines were maintained in RPMI-1640 medium (Gibco BRL, Grand Island, N.Y.) supplemented with 10% FCS.
The PBMCs from 3 HLA-A24^+ prostate cancer patients were then stimulated in vitro with the indicated EZH2 peptide, and examined for their cytotoxicity against HLA-A24^− LNCaP cells, HLA-A24^+ LNCaP-A24, and HLA-A24^+ PHA-stimulated T cell blasts. Specifically, after in vitro stimulation with the EZH2 peptides, the peptide-stimulated PBMCs were additionally cultured with 100 U/ml IL-2 for approximately 10 days in 96 round-well plates in order to obtain a sufficient number of cells to carry out a cytotoxicity assay. Then, these cells were tested for cytotoxicity against LNCaP, LNCaP-A24, and PHA-stimulated T cell blasts by a 6-hr ^51Cr-release assay. Two thousand ^51Cr-labeled cells per well were cultured with effector cells in 96 round-well plates at the indicated effector/target ratios.

Data set [3] deals with LNCaP-A24 cells. Briefly: Inhibition of the cytotoxicity of EZH2 peptide-stimulated PBMCs by antibodies. It is filed as cell-based, human. The settings on record: mAb 20 μg/ml; effector/target ratio 10/1; patients 17, 18, 21. On the procedure:
We further tried to confirm which effector cells were responsible for the cytotoxicity. EZH2 peptide-stimulated PBMCs from patients 17, 18, and 21 were tested for their cytotoxicity against the LNCaP-A24 cells. The 6-hr cytotoxicity assay was performed in the presence of the indicated monoclonal antibody (mAb). The assay was done at an effector/target ratio of 10/1. Either anti-HLA class I (W6/32: mouse IgG2a), anti-HLA-DR (L243: mouse IgG2a), anti-CD4 (Nu-Th/i: mouse IgG1), anti-CD8 (Nu-Ts/c: mouse IgG2a), or anti-CD14 (H14: mouse IgG2a) mAb was added to the wells at a dose of 20 μg/ml at the start of the assay.

Data set [4] concerns PBMCs of HLA-A24^+ prostate cancer patients. The data set is described as follows: IFN-γ production of peptide-stimulated PBMCs against peptide-pulsed C1R-A24 cells (peptide-specific CTL assay). The settings on record: for Cancer patients in whom the peptide induced peptide-specific CTLs: HLA-A24^+ prostate cancer patients; for IFN-γ production: day 15, C1R-A24 cells pulsed with corresponding peptide, HIV peptide background subtracted, mean of 2 wells. The data set is classed as cell-based, human. How it is done: The assay for the detection of peptide-specific CTLs in PBMCs was performed according to a previously reported method (21). In brief, PBMCs (1×10^5 cells/well) were incubated with 10 μg/ml of each peptide in a U-bottom-type 96-well microculture plate (Nunc, Roskilde, Denmark) at a volume of 200 μl of culture medium. The culture medium consisted of 45% RPMI-1640, 45% AIM-V medium (Gibco BRL, Grand Island, N.Y.), 10% FCS, 100 U/ml of interleukin (IL)-2, and 0.1 mM MEM nonessential amino acid solution (Gibco BRL, Grand Island, N.Y.). Half of the culture medium was removed and replaced with new medium containing a corresponding peptide (20 μg/ml) every 3 days. On the 15th day of culture, the cultured cells were separated into 4 wells, and two of which were used for EZH2 peptide-pulsed C1R-A24 cells, and the other two of which were used for the HIV peptide-pulsed C1R-A24 cells. C1R-A24 is an HLA-A*2402-expressing subline of C1R lymphoma (Oiso M, Eura M, Katsura F, Takiguchi M, Sobao Y, Masuyama K, Nakashima M, Itoh K, Ishikawa T. A newly identified MAGE-3-derived epitope recognized by HLA-A24-restricted cytotoxic T lymphocytes. Int. J. Cancer 81: 387–394, 1999, this reference is incorporated herein by reference). After an 18-hr incubation period, the supernatants were collected and the level of IFN-γ was determined by ELISA. The EZH2-170 peptide was included in this experiment as an EZH2 peptide that was less frequently recognized by the humoral immune system.

Where [5] appears, read: significant: p < 0.05 and >100 pg/ml of IFN-γ production.

In the case of TYYDNFCAI (EZH2 446-454) [EZH2-446], in data set [1] (10 prostate cancer patients), the “Humoral response, Total (IgG-positive patients/patients tested)” value is given as 0/10.
Take KYVGIEREM [EZH2-735]: the “Cytotoxicity of peptide-stimulated PBMCs / induction of HLA-A24-restricted prostate cancer-reactive CTLs” value in data set [2] is “efficiently induce HLA-A24-restricted and prostate cancer-reactive CTLs”; in data set [2] (listed as EZH2 735–743) it was “efficiently induced HLA-A24-restricted and prostate cancer-reactive CTLs”. For the same sequence, the “Cytotoxicity against LNCaP-A24 cells on addition of anti-class I or anti-CD8 mAb” value in data set [3] was “significantly inhibited”.
As for “RFYIQMCYEL (Flu virus-derived peptide) [reference compound]”, in data set [4], the “Reactivity of peptide-stimulated PBMCs, Total (patients with significant IFN-γ production/patients tested)” value is on record as 3/10.
With TYGPVFMCL [EBV, reference compound], the “Reactivity of peptide-stimulated PBMCs, Total (patients with significant IFN-γ production/patients tested)” value in data set [4] is listed as 5/10.
KYMCSFLFNL (EZH2 660-669) [EZH2-660]: the “Humoral response, Total (IgG-positive patients/patients tested)” value in data set [1] (10 prostate cancer patients) was 2/10. Also, the results for the “IgG reactive to peptide, OD” value in data set [1] (prostate cancer patient #2) and in data set [1] (prostate cancer patient #10) were 0.105 OD and 0.058 OD, respectively.
For NFMVEDETVL (EZH2 119-128) [EZH2-119], the “Humoral response, Total (IgG-positive patients/patients tested)” value in data set [1] (10 prostate cancer patients) is 1/10. Further, the “IgG reactive to peptide, OD” value in data set [1] (prostate cancer patient #8) was found to be 0.047 OD.
As for DFPTQVIPL (EZH2 90-98) [EZH2-90], in data set [1] (10 prostate cancer patients), the “Humoral response, Total (IgG-positive patients/patients tested)” value is listed as 0/10.
In the case of IFVELVNAL (EZH2 170-178) [EZH2-170], the “Cancer patients in whom the peptide induced peptide-specific CTLs” value in data set [4] is recorded as 1 of 10. Also, the IFN-γ production in data set [4] (patient #11) is 10 pg/mL; in data set [4] (patient #12), 15 pg/mL; in data set [4] (patient #13) it was 181 pg/mL; in data set [4] (patient #14), 35 pg/mL; in data set [4] (patient #15), 10 pg/mL; in data set [4] (patient #16), 30 pg/mL. Moreover, the IFN-γ production in data set [4] (patient #17) was found to be 87 pg/mL; in data set [4] (patient #18) it was 0 pg/mL; in data set [4] (patient #19) it was 16 pg/mL; in data set [4] (patient #20), 82 pg/mL. The “Reactivity of peptide-stimulated PBMCs, Total (patients with significant IFN-γ production/patients tested)” value in data set [4] (setting [5]) was 1/10. For the same sequence, the “Humoral response, Total (IgG-positive patients/patients tested)” value in data set [1] (10 prostate cancer patients) is given as 1/10. Besides, the “IgG reactive to peptide, OD” value in data set [1] (prostate cancer patient #8) is 0.043 OD.
On to KYKELTEQQL (EZH2 243-252) [EZH2-243], for which, in data set [4], the “Cancer patients in whom the peptide induced peptide-specific CTLs” value is 2 of 10. The IFN-γ production in data set [4] (patient #11) stood at 124 pg/mL; in data set [4] (patient #12), 25 pg/mL; in data set [4] (patient #13), 0 pg/mL; in data set [4] (patient #14), 13 pg/mL; in data set [4] (patient #15) it was 27 pg/mL; in data set [4] (patient #16), 27 pg/mL. The IFN-γ production in data set [4] (patient #17) stood at 44 pg/mL; in data set [4] (patient #18) it was 13 pg/mL; in data set [4] (patient #19), 71 pg/mL; in data set [4] (patient #20), 171 pg/mL. In data set [4] (setting [5]), the “Reactivity of peptide-stimulated PBMCs, Total (patients with significant IFN-γ production/patients tested)” value is given as 2/10. Moreover, the “Patients in whose plasma IgG reactive to the peptide was detected” value in data set [1] (10 prostate cancer patients) is recorded as 6 of 10 patients. In data set [1] (10 prostate cancer patients), the “Humoral response, Total (IgG-positive patients/patients tested)” value is listed as 6/10. Further, the “IgG reactive to peptide, OD” value in data set [1] (prostate cancer patient #1) worked out at 0.055 OD; in data set [1] (prostate cancer patient #2), 0.080 OD; in data set [1] (prostate cancer patient #7), 0.041 OD; in data set [1] (prostate cancer patient #8) it was 0.150 OD; in data set [1] (prostate cancer patient #9), 0.089 OD; in data set [1] (prostate cancer patient #10), 0.067 OD. In addition, the “Share of prostate cancer patients with IgG reactive to the peptide detected in plasma” value in data set [1] (summary statement) is “almost half”.
Take DYRYSQADAL (EZH2 725-734) [EZH2-725]: the “Humoral response, Total (IgG-positive patients/patients tested)” value in data set [1] (10 prostate cancer patients) is listed as 2/10. Further, the “IgG reactive to peptide, OD” value stood at 0.049 OD in data set [1] (prostate cancer patient #2) and 0.056 OD in data set [1] (prostate cancer patient #8).
On to KYDCFLHPF [EZH2-291], for which the “Cytotoxicity of peptide-stimulated PBMCs / induction of HLA-A24-restricted prostate cancer-reactive CTLs” value in data set [2] was “efficiently induce HLA-A24-restricted and prostate cancer-reactive CTLs”; in data set [2] (listed as EZH2 291–299), “efficiently induced HLA-A24-restricted and prostate cancer-reactive CTLs”. In data set [3], the “Cytotoxicity against LNCaP-A24 cells on addition of anti-class I or anti-CD8 mAb” value is “significantly inhibited”.
